According to patent US20130142796A1, “TREATMENT FOR ANGIOGENIC DISORDERS” (priority 2011, published 2013):
Entries after “also recorded” stand apart in the source; their conditions may differ.

How the values were obtained:
[1] = test system: patient with active fluid within or under the retina; test: Case studies of Patients 1-8: intravitreal injection, lesion activity followed by OCT and fluorescein angiography; format: in vivo, human; conditions: for subretinal fluid: Patient 1, after 21 previous intravitreal injections of either Lucentis or Avastin; for sub-retinal and sub-RPE fluid: Patient 3, after repeated mono-therapy, ranibizumab 11 times or bevacizumab 3 times; for subretinal fluid and cystoid degeneration: despite photodynamic therapy with verteporfin X2, monthly ranibizumab X12, bevacizumab X15
Experimental: In the following examples, “protocol” treatment means that 0.3 mg of pegaptanib in combination with 0.125 mg of bevacizumab or 0.5 mg of ranibizumab, all in commercially available formulations, were injected intravitreally to a patient, using standard procedures for such injections.
The patient provided written consent following a thorough discussion of relative risks and benefits of the potential use of Macugen® in a combination format with simultaneous administration of intravitreal Avastin®.
Macugen® was first injected intravitreally (0.3 mg in 0.09 cc). Optic nerve perfusion and intraocular pressure were assessed. Upon restoration of adequate perfusion and pressure stabilization, the eye was once again sterilized and a second intravitreal injection of Avastin® (1.25 mg in 0.05 cc) was given. Optic nerve perfusion and intraocular pressure were reassessed, and the patient was scheduled for routine follow-up.

[2] = target: heparin-binding domain (HBD) of VEGF (Homo sapiens, UniProt P15692); conditions: Lee et al., FEBS Lett. 2008; cited from earlier work
[3] = Patient 4, drug used in isolation after protocol treatment

heparin-binding domain (HBD) of VEGF, sequence (P15692 137-191 isoform P15692-4 limits assumed): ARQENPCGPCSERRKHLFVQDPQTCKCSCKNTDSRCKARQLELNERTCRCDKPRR

| Molecule | subretinal fluid [1] | sub-retinal and sub-RPE fluid [1] | fluid [1, 3] | fluid ([1]; Patient 6, re-administration of bevacizumab mono-therapy after protocol treatment) | subretinal fluid and cystoid degeneration ([1]; Patient 7) | fluid and vision ([1]; Patient 7, return to bevacizumab alone after protocol treatment) | binding affinity [2] | subretinal fluid on OCT ([1]; Patient 2, after 33 consecutive intravitreal ranibizumab treatments) | fluorescein angiogram, late frames ([1]; Patient 2, before combination therapy, after 33 intravitreal ranibizumab) | cystoid macular edema (CME) ([1]; Patient 4, despite 10 ranibizumab injections) | lesion activity on angiogram and OCT ([1]; Patient 6, after 22 ranibizumab treatments) | disease management ([1]; Patient 6, ranibizumab mono-therapy after disease was acutely managed with protocol treatment) |
| --- | --- | --- | --- | --- | --- | --- | --- | --- | --- | --- | --- | --- |
| bevacizumab | chronic subretinal fluid | chronic fluid in the sub-retinal and sub-RPE (retinal pigment epithelium) space | recurrent fluid | recurrent fluid | subretinal fluid (SRF); also recorded: chronic subretinal fluid and cystoid degeneration | relapse of fluid and vision loss | – | – | – | – | – | – |
| pegaptanib | – | – | recurrent fluid | – | – | – | high affinity | – | – | – | – | – |
| verteporfin | – | – | – | – | chronic subretinal fluid and cystoid degeneration | – | – | – | – | – | – | – |
| ranibizumab (antibody, chains of the INN, looked up, V domains shown, Fab) VH: EVQLVESGGGLVQPGGSLRLSCAASGYDFTHYGMNWVRQAPGKGLEWVGWINTYTGEPTYAADFKRRFTFSLDTSKSTAYLQMNSLRAEDTAVYYCAKYPYYYGTSHWYFDVWGQGTLVTVSS VL: DIQLTQSPSSLSASVGDRVTITCSASQDISNYLNWYQQKPGKAPKVLIYFTSSLHSGVPSRFSGSGSGTDFTLTISSLQPEDFATYYCQQYSTVPWTFGQGTKVEIK | chronic subretinal fluid | chronic fluid in the sub-retinal and sub-RPE (retinal pigment epithelium) space | – | – | subretinal fluid (SRF); also recorded: chronic subretinal fluid and cystoid degeneration | – | – | subretinal fluid (SRF); also recorded: chronic residual subretinal fluid | leakage from the choroidal neovascular membrane (CNVM) | chronic cystoid macular edema (CME) | persistent lesion activity | could be managed with ranibizumab mono-therapy alone |
